Assay results published in patent publication US20170000129A1, “METHOD FOR TREATING MINERAL SLURRIES WITH A BIOCIDE” (priority 2015, published 2017).

Experiments:
[1] = tested on: bacterial growth in kaolin slurry; test: Kaolin slurry preservation test: biocide-dosed 65% solids slurry plated on standard method agar, samples as treated; type: cell-based, bacteria; conditions: for biocide efficacy compared with known biocides: Table 2, up to 28 days
Experimental: (§1) In the comparative testing, dry kaolin was mixed with water to achieve a 65% solid slurry material. This material contained no biocide. The slurry was then split into 200 gram aliquots and dosed with different biocides at different concentration as shown in Tables 1-3. All samples were kept at 50° C. until the end of the testing, which was up to 28 days.
A number of different and known biocides were used in the study and they include glutaraldehyde (glute), 1,2 benzithiazolin-3-one (BIT), tetrahydro-3-5-methyl-2H-1,3,5-thiadizine-2-thione (thione), isothiazoline (ISO), bronopol (BNPD) or orthophenyl phenate (OPP). For shorthand purposes, the study refers to the tradename of the biocide, which is found in the above listing of the biocides. Metam sodium is designated as SMDC and MDTCMA is used without change
(§2) The protocol for the testing of each sample is as follows: • 1) dosed with a recorded level of biocide; • 2) mixed for 24 hours contact time and plated using standard method agar for bacterial growth; • 3) remixed daily for 1 hour and retested for bacterial growth at Day 3; • 4) remixed daily for 1 hour and retested for bacterial growth at Day 7; • 5) remixed daily for 1 hour and retested for bacterial growth at Day 14; • 6) on day 20, samples were split into two containers: one container was inoculated (or challenged) with ˜10^5 cfu/ml bacteria, the other was left “as treated”, the challenge material was obtained from a contaminated kaolin product and is assumed to be representative of the types of bacteria that are seen in the kaolin industry, and the two sets of samples were prepared for Day 21 testing; • 7) both sets were remixed daily for 1 hour and retested for bacterial growth at Day 21; and • 8) both sets remixed daily for 1 hour and retested for bacterial growth at Day 28.
Different contact times were used to see how quickly the bacterial population was effected by the biocide.

[2] = tested on: bacteria from a contaminated kaolin product; test: Kaolin slurry preservation test, challenge: on day 20 samples inoculated with ~10^5 cfu/ml bacteria from a contaminated kaolin product; type: cell-based
Experimental: as §1, §2

CNC(=S)[S-].[Na+] [42% SMDC, sodium N-methyldithiocarbamate]
Log Red, contact time 1 day ([1]; 500 ppm, Table 1): 0 | Log Red, contact time 3 day ([1]; 500 ppm, Table 1): 1 | Log Red, contact time 7 day ([1]; 500 ppm, Table 1): 3 | cfu/mL, contact time 1 day ([1]; 500 ppm, Table 1): 24,340,000 cfu/mL | cfu/mL, contact time 3 day ([1]; 500 ppm, Table 1): 2,600,000 cfu/mL | cfu/mL, contact time 7 day ([1]; 500 ppm, Table 1): 30,000 cfu/mL | performance against the BIT biocide when measuring log reduction ([1]; 500 ppm, Table 1): performed at least as well as the BIT biocide | Log Red, contact time 1 day ([1]; 500 ppm, Table 2): 0 | Log Red, contact time 3 day ([1]; 500 ppm, Table 2): 2 | Log Red, contact time 7 day ([1]; 500 ppm, Table 2): 4 | Log Red, contact time 14 day ([1]; 500 ppm, Table 2): 4 | Log Red, contact time 21 day ([1]; 500 ppm, Table 2): 5 | Log Red, contact time 28 day ([1]; 500 ppm, Table 2): 4 | cfu/mL, contact time 1 day ([1]; 500 ppm, Table 2): 19,630,000 cfu/mL | cfu/mL, contact time 3 day ([1]; 500 ppm, Table 2): 780,002 cfu/mL | cfu/mL, contact time 7 day ([1]; 500 ppm, Table 2): 4,000 cfu/mL | cfu/mL, contact time 14 day ([1]; 500 ppm, Table 2): 3,000 cfu/mL | cfu/mL, contact time 21 day ([1]; 500 ppm, Table 2): 1,800 cfu/mL | cfu/mL, contact time 28 day ([1]; 500 ppm, Table 2): 1,800 cfu/mL | Log Red, contact time 1 day ([1]; 1000 ppm, Table 1): 0 | Log Red, contact time 3 day ([1]; 1000 ppm, Table 1): 1 | Log Red, contact time 7 day ([1]; 1000 ppm, Table 1): 5 | cfu/mL, contact time 1 day ([1]; 1000 ppm, Table 1): 16,880,000 cfu/mL | cfu/mL, contact time 3 day ([1]; 1000 ppm, Table 1): 2,200,000 cfu/mL | cfu/mL, contact time 7 day ([1]; 1000 ppm, Table 1): 1,000 cfu/mL | performance against the BIT biocide when measuring log reduction ([1]; 1000 ppm, Table 1): far superior | Log Red, contact time 1 day ([1]; 1000 ppm, Table 2): 0 | Log Red, contact time 3 day ([1]; 1000 ppm, Table 2): 4 | Log Red, contact time 7 day ([1]; 1000 ppm, Table 2): 4 | Log Red, contact time 14 day ([1]; 1000 ppm, Table 2): 4 | Log Red, contact time 21 day ([1]; 1000 ppm, Table 2): 5 | Log Red, contact time 28 day ([1]; 1000 ppm, Table 2): 4 | cfu/mL, contact time 1 day ([1]; 1000 ppm, Table 2): 12,560,000 cfu/mL | cfu/mL, contact time 3 day ([1]; 1000 ppm, Table 2): 4,800 cfu/mL | cfu/mL, contact time 7 day ([1]; 1000 ppm, Table 2): 2,400 cfu/mL | cfu/mL, contact time 14 day ([1]; 1000 ppm, Table 2): 2,600 cfu/mL | cfu/mL, contact time 21 day ([1]; 1000 ppm, Table 2): 900 cfu/mL | cfu/mL, contact time 28 day ([1]; 1000 ppm, Table 2): 900 cfu/mL | Log Red, contact time 1 day ([1]; 1000 ppm, Table 3): 3 | Log Red, contact time 3 day ([1]; 1000 ppm, Table 3): 2 | Log Red, contact time 7 day ([1]; 1000 ppm, Table 3): 2 | Log Red, contact time 14 day ([1]; 1000 ppm, Table 3): 3 | Log Red, contact time 21 day ([1]; 1000 ppm, Table 3): 2 | Log Red, contact time 28 day ([1]; 1000 ppm, Table 3): 2 | cfu/mL, contact time 1 day ([1]; 1000 ppm, Table 3): 200 cfu/mL | cfu/mL, contact time 3 day ([1]; 1000 ppm, Table 3): 100 cfu/mL | cfu/mL, contact time 7 day ([1]; 1000 ppm, Table 3): 100 cfu/mL | cfu/mL, contact time 14 day ([1]; 1000 ppm, Table 3): 100 cfu/mL | cfu/mL, contact time 21 day ([1]; 1000 ppm, Table 3): 100 cfu/mL | cfu/mL, contact time 28 day ([1]; 1000 ppm, Table 3): 100 cfu/mL | Log Red, contact time 1 day ([1]; 1500 ppm, Table 3): 3 | Log Red, contact time 3 day ([1]; 1500 ppm, Table 3): 2 | Log Red, contact time 7 day ([1]; 1500 ppm, Table 3): 2 | Log Red, contact time 14 day ([1]; 1500 ppm, Table 3): 3 | Log Red, contact time 21 day ([1]; 1500 ppm, Table 3): 2 | Log Red, contact time 28 day ([1]; 1500 ppm, Table 3): 2 | cfu/mL, contact time 1 day ([1]; 1500 ppm, Table 3): 100 cfu/mL | cfu/mL, contact time 3 day ([1]; 1500 ppm, Table 3): 100 cfu/mL | cfu/mL, contact time 7 day ([1]; 1500 ppm, Table 3): 100 cfu/mL | cfu/mL, contact time 14 day ([1]; 1500 ppm, Table 3): 100 cfu/mL | cfu/mL, contact time 21 day ([1]; 1500 ppm, Table 3): 100 cfu/mL | cfu/mL, contact time 28 day ([1]; 1500 ppm, Table 3): 100 cfu/mL | biocide efficacy compared with known biocides [1]: comparable biocide efficacy as compared to known biocides | biocide effectiveness compared with thione ([1]; Table 3, up to the 28 day testing, not challenge testing, 1000 and 1500 ppm): performed on a par with the thione | Log Red, 21 day Challenge ([2]; 500 ppm, Table 2): 3 | Log Red, 28 day Challenge ([2]; 500 ppm, Table 2): 3 | cfu/mL, 21 day Challenge ([2]; 500 ppm, Table 2): 105,000 cfu/mL | cfu/mL, 28 day Challenge ([2]; 500 ppm, Table 2): 16,000 cfu/mL | Log Red, 21 day Challenge ([2]; 1000 ppm, Table 2): 3 | Log Red, 28 day Challenge ([2]; 1000 ppm, Table 2): 3 | cfu/mL, 21 day Challenge ([2]; 1000 ppm, Table 2): 59,000 cfu/mL | cfu/mL, 28 day Challenge ([2]; 1000 ppm, Table 2): 16,000 cfu/mL | Log Red, 21 day Challenge ([2]; 1000 ppm, Table 3): 2 | Log Red, 28 day Challenge ([2]; 1000 ppm, Table 3): 1 | cfu/mL, 21 day Challenge ([2]; 1000 ppm, Table 3): 384,000 cfu/mL | cfu/mL, 28 day Challenge ([2]; 1000 ppm, Table 3): 3,000,000 cfu/mL | Log Red, 21 day Challenge ([2]; 1500 ppm, Table 3): 5 | Log Red, 28 day Challenge ([2]; 1500 ppm, Table 3): 5 | cfu/mL, 21 day Challenge ([2]; 1500 ppm, Table 3): 100 cfu/mL | cfu/mL, 28 day Challenge ([2]; 1500 ppm, Table 3): 100 cfu/mL | biocide effectiveness in challenge testing ([2]; Table 3, challenge testing): comparable to thione | biocide effectiveness after inoculation, overall result of the studies ([2]; after inoculation): most effective biocides

O=CCCCC=O [50% Glute, glutaraldehyde, reference compound]
Log Red, contact time 1 day ([1]; 400 ppm, Table 2): 5 | Log Red, contact time 3 day ([1]; 400 ppm, Table 2): 5 | Log Red, contact time 7 day ([1]; 400 ppm, Table 2): 6 | Log Red, contact time 14 day ([1]; 400 ppm, Table 2): 6 | Log Red, contact time 21 day ([1]; 400 ppm, Table 2): 6 | Log Red, contact time 28 day ([1]; 400 ppm, Table 2): 5 | cfu/mL, contact time 1 day ([1]; 400 ppm, Table 2): 100 cfu/mL | cfu/mL, contact time 3 day ([1]; 400 ppm, Table 2): 100 cfu/mL | cfu/mL, contact time 7 day ([1]; 400 ppm, Table 2): 100 cfu/mL | cfu/mL, contact time 14 day ([1]; 400 ppm, Table 2): 100 cfu/mL | cfu/mL, contact time 21 day ([1]; 400 ppm, Table 2): 100 cfu/mL | cfu/mL, contact time 28 day ([1]; 400 ppm, Table 2): 100 cfu/mL | biocide efficacy compared with known biocides [1]: best performer | Log Red, 21 day Challenge ([2]; 400 ppm, Table 2): 6 | Log Red, 28 day Challenge ([2]; 400 ppm, Table 2): 5 | cfu/mL, 21 day Challenge ([2]; 400 ppm, Table 2): 100 cfu/mL | cfu/mL, 28 day Challenge ([2]; 400 ppm, Table 2): 100 cfu/mL
